Results reported in article PMC8742647 (Clinical and Translational Science, 2021).
Like-named read-outs stand apart in the source and are kept apart here.

Columns and labels:
[1] = prediction of CLt,human by single-species allometric scaling from PXB-mice; set-up: species or system humans; conditions: for Fold error (predicted/observed), PXB‐SSS: predicted/observed CLt,human; for Predicted CLt,human, PXB‐SSS: scaled from CLt in PXB-mice, exponent 0.75
[2] = fraction unbound in rat plasma; ref Table S1; cited from earlier work
[3] = total clearance after intravenous administration to rats; format: in vivo, Sprague–Dawley rats; conditions: intravenous cassette dose 0.1 mg/kg, N = 3
[4] = ref Table S1; cited from earlier work
[5] = total clearance after intravenous administration to PXB-mice; format: in vivo, PXB‐mice (chimeric mice with humanized livers); conditions: intravenous cassette dose 0.1 mg/kg, N = 3, noncompartmental analysis
[6] = prediction of CLt,human by physiologically based scaling using PXB-mice; set-up: species or system humans; conditions: for Predicted CLt,human, PXB‐PBS: from CLt in PXB-mice, dispersion model, CLint per hepatocyte assumed equal; for Fold error (predicted/observed), PXB‐PBS: predicted/observed CLt,human
[7] = for Predicted CLt,human, FCIM: from CLt in rats, monkeys and dogs and fu,p ratio rat/human; for Fold error (predicted/observed), FCIM: predicted/observed CLt,human
[8] = test system: cryopreserved human hepatocytes; assay: in vitro metabolic stability assay using cryopreserved human hepatocytes; conditions: for turnover during a 4‐h incubation in the human hepatocyte assay: criterion for low‐CLint compounds: no significant turnover (<20%); for CLint per hepatocyte, Humans: in vitro, human hepatocytes, corrected with fraction unbound in hepatocytes and medium
[9] = prediction of CLt,human by multispecies allometric scaling, rule of exponent; conditions: for Predicted CLt,human, ROE: from CLt in rats, monkeys and dogs; for Fold error (predicted/observed), ROE: predicted/observed CLt,human
[10] = humans; ref Table S1; cited from earlier work
[11] = fraction unbound in plasma, equilibrium dialysis; format: in vitro ADME, humans; conditions: fraction unbound in human plasma
[12] = total clearance after intravenous administration to monkeys; format: in vivo, cynomolgus monkeys; conditions: intravenous cassette dose 0.1 mg/kg, N = 3
[13] = blood‐to‐plasma concentration ratio, ref Table S1; cited from earlier work
[14] = prediction of CLt,human by in vitro–in vivo extrapolation; set-up: species or system humans; conditions: for Predicted CLt,human, IVIVE: from in vitro CLint per human hepatocyte, dispersion model; for Fold error (predicted/observed), IVIVE: predicted/observed CLt,human
[15] = ref Table S1; cited from earlier work; remark: listed apart in the source
[16] = fraction unbound in plasma, equilibrium dialysis; format: in vitro ADME, Sprague–Dawley rat; conditions: fraction unbound in rat plasma
[17] = ref Table S1; cited from earlier work; remark: listed apart in the source

| SMILES | Fold error (predicted/observed), PXB‐SSS [1] | Predicted CLt,human, PXB‐SSS [1] [mL/min/kg] | f u,p, Rats [2] | CLt, Rats [3] [mL/min/kg] | CLt, Dogs [4] [mL/min/kg] | CLt, PXB‐mice [5] [mL/min/kg] | Predicted CLt,human, PXB‐PBS [6] [mL/min/kg] | Fold error (predicted/observed), PXB‐PBS [6] | Predicted CLt,human, FCIM [7] [mL/min/kg] | Fold error (predicted/observed), FCIM [7] | turnover during a 4‐h incubation in the human hepatocyte assay [8] [%] | Predicted CLt,human, ROE [9] [mL/min/kg] | Fold error (predicted/observed), ROE [9] | Observed CLt,human [10] [mL/min/kg] | f u,p, Humans [11] | CLt, Monkeys [12] [mL/min/kg] | R b, Humans [13] | Predicted CLt,human, IVIVE [14] [mL/min/kg] | Fold error (predicted/observed), IVIVE [14] | CLt, Monkeys [15] [mL/min/kg] | other results |
| --- | --- | --- | --- | --- | --- | --- | --- | --- | --- | --- | --- | --- | --- | --- | --- | --- | --- | --- | --- | --- | --- |
| CN1C(C(=O)Nc2ccccn2)=C(O)c2sccc2S1(=O)=O [Tenoxicam] | 1.29 | 0.039 | 0.030 | 0.49 | 0.104 | 0.2878 | 0.044 | 1.46 | 0.085 | 2.83 | < 20 | 0.029 | 0.98 | 0.03 | 0.015 | 0.061 | 0.67 |  |  |  | discrepancy between observed and predicted CLt,human, FCIM approach [7]: more than 3 fold; discrepancy between observed and predicted CLt,human, ROE approach [9]: more than 3 fold |
| CCNC(=O)OC1CCN(c2nncc3cc(OC)c(OC)cc23)CC1 [Carbazeran] | 0.34 | 12.8 |  | 42.22 | 11.5 | 99.67 | 16.4 | 0.44 | 7.6 | 0.20 |  | 8.6 | 0.23 | 37.6 | 0.148 |  |  | 15.5 | 0.41 | 87.87 | f u,p, Rats [16]: 0.169 |
| COc1ccccc1Oc1c(NS(=O)(=O)c2ccc(C(C)(C)C)cc2)nc(-c2ncccn2)nc1OCCO [Bosentan] |  | 1.18 |  |  | 1.72 | 8.78 | 1.39 |  | 5.37 |  |  | 1.68 |  | 2.1 |  |  | 0.48 | 0.68 |  | 20.6 | CLt, Rats [17]: 16.40 mL/min/kg; CLint per hepatocyte, Humans [8]: 12.3 µl/min/1 × 10^6 cells |
| CN1C(=O)CN=C(c2ccccc2)c2cc(Cl)ccc21 [Diazepam] |  | 5.68 |  |  | 46.71 | 42.147 | 7.52 |  | 2.53 |  |  | 12.46 |  | 0.38 |  |  | 0.71 | 0.69 |  | 17.90 | CLt, Rats [17]: 61.51 mL/min/kg |
| CN[C@@H]1C[C@H]2O[C@@](C)([C@@H]1OC)n1c3ccccc3c3c4c(c5c6ccccc6n2c5c31)C(=O)N[C@H]4O [UCN−01, 7‐hydroxystaurosporine] | 1.35 | 0.0050 | 0.0175 | 77.37 | 10.27 | 0.0369 | 0.0056 | 1.52 | 1.3765 | 372.03 |  | 1.5640 | 422.70 | 0.0037 | 0.003 | 3.36 |  | 0.6186 | 167.20 |  | % remaining after a 4‐h incubation ([8]; cryopreserved human hepatocytes, 0.5 million cells/ml, 0.1 or 1 µmol/l, 4 h): 4%; CLint per hepatocyte, Humans [8]: 83.5 µl/min/1 × 10^6 cells |
| CCCCNC(=O)NS(=O)(=O)c1ccc(C)cc1 [Tolbutamide] |  | 0.074 |  | 0.39 |  | 0.58 | 0.088 |  |  |  | < 20 | 0.040 |  |  |  | 0.0456 |  |  |  |  |  |
